Measurements: patent publication US8691799B2, “Materials and methods for treatment of cancer and identification of anti-cancer compounds” (priority 2001, dated 2014)

Columns and labels:
[1] = tested on: STAT3 DNA-binding activity; experiment: Electrophoretic mobility shift assay (EMSA) of nuclear extracts; type: cell-based; settings: nuclear extracts from v-Src/NIH 3T3 and A549 cells
Protocol: Nuclear Extract Preparation and Gel Shift Assay. Nuclear extract preparation and electrophoretic mobility shift assay were carried out as previously described (Turkson, J. et al. Mol. Cell Biol., 1999, 19:7519-7528). The ^32P-radiolabeled oligonucleotide probe is hSIE (high affinity sis-inducible element, m67 variant, 5′-[…]-3′) (SEQ ID NO. 1) that binds STAT1 and STAT3.

[2] = tested on: phosphotyrosine JAK2; experiment: Western blotting for phosphotyrosine JAK2; type: cell-based, human
Protocol: Western Blotting. Treated cell samples were lysed in 30 mM Hepes, pH 7.5, 10 mM NaCl, 5 mM MgCl2, 25 mM NaF, 1 mM EGTA, 1% Triton-X-100, 10% glycerol, 2 mM sodium orthovanadate, 10 μg/ml aprotinin, 10 μg/ml soybean trypsin inhibitor, 25 μg/ml leupeptin, 2 mM PMSF, and 6.4 mg/ml p-nitrophenylphosphate. Phospho-STAT3, phospho-AKT, phospho-MEK, and phospho-p42/p44 MAPK antibodies were obtained from Cell Signaling Technologies, Cambridge, Mass. Antibodies to STAT3, JAK2, and phospho-INK were purchased from Santa Cruz Biotechnology, Santa Cruz, Calif. Phospho-JAK2 antibody came from Upstate Biotechnology, Lake Placid, N.Y. Membranes were blocked in either 5% milk in PBS, pH 7.4, containing 0.1% Tween-20 (PBS-T) or 1% BSA in TBS, pH 7.5, containing 0.1% Tween-20 (TBS-T). Phospho-specific antibodies (excepting P-MAPK and P-JNK) were incubated in 1% BSA in TBS-T while all other antibodies were diluted in 5% milk in PBS-T for either 2 hr at room temperature or overnight at 4° C. HRP-conjugated secondary antibodies (Jackson ImmunoResearch) were diluted in 5% milk in either PBS-T or TBS-T at 1:1000 dilution for one hour at room temperature. Western blots were visualized using enhanced chemiluminescence as described previously (Blaskovich, M. A. et al. Nat. Biotechnol., 2000, 18:1065-1070).

[3] = target: T1, JAK2 (Homo sapiens, UniProt O60674); experiment: JAK kinase autophosphorylation assay on immunoprecipitates (JAK2); type: biochemical; settings: immunoprecipitates from A549, MDA-MB-468 or v-Src/NIH 3T3 cells; AG490 100 μM, PD180970 2 μM
T1 construct: Src, JAK1, and JAK2 were immunoprecipitated from either A549, MDA-MB-468, or v-Src/NIH 3T3 cells; endogenous in cells; host or cells: A549, MDA-MB-468, v-Src transformed NIH 3T3 (immunoprecipitates)
Protocol: JAK Kinase Assays. A549, MDA-MB-468, and v-Src transformed NIH 3T3 cells were harvested, washed three times in PBS-V (10 mM sodium phosphate, pH 7.4, 137 mM NaCl, 1 mM sodium orthovanadate) then lysed for 30 min on ice in JAK kinase lysis buffer (25 mM Hepes, pH 7.4, 0.1% Triton-X-100, 0.5 mM DTT, 1 mM sodium orthovanadate, 1 mM PMSF, 10 μg/ml aprotinin, 10 μg/ml leupeptin). Samples were spun at high speed to clear, and 800-1000 μg of protein was immunoprecipitated per treatment condition with 50 ng of either JAK1 or JAK2 antibody (Santa Cruz Biotechnology) rocking overnight at 4° C. 25 μl of protein A/G PLUS agarose then was added and rocking continued for 1 hr at 4° C. Samples were spun to collect agarose pellet, and pellet washed twice in wash buffer (50 mM Hepes, pH 7.4, 0.1% Triton-X-100, 0.5 mM DTT, 150 mM NaCl) and once in phosphorylation buffer (50 mM Hepes, pH 7.4, 0.1% Triton-X-100, 0.5 mM DTI, 6.25 mM manganese chloride, 100 mM NaCl). Kinase reactions were performed at 30° C. for 15 min in a final volume of 100 μl of phosphorylation buffer. Samples were pretreated with DMSO control, JSI-124, and control compounds (AG490, 100 μM, and […], 2 μM) before addition of 20 μCi/sample y-[^32P]ATP. Reaction was halted using stop buffer (wash buffer plus 10 mM EDTA), samples spun to collect pellet, then pellet washed once with stop buffer and twice with wash buffer. Samples were then placed in 2×SDS-PAGE sample buffer, boiled at 100° C., and run on 8% SDS-PAGE gels to separate proteins. Autophosphorylation results were visualized by autoradiography.

[4] = target: T2, EGFR (Homo sapiens, UniProt P00533); experiment: EGF-stimulation of EGFR tyrosine phosphorylation; type: cell-based; settings: MCF-10A and EGFR-overexpressing NIH 3T3 cells (data not shown)
T2 construct: EGFR tyrosine phosphorylation in the breast cell line MCF-10A; endogenous in cells; host or cells: MCF-10A; also EGFR-overexpressing NIH 3T3

[5] = Tolerability observations in treated mice; type: in vivo
Source text: Antitumor Activity in the Nude Mouse Tumor Xenograft Model. Nude mice and C57 BL-6 black mice (National Cancer Institute, Bethesda, Md.) were maintained in accordance with the Institutional Animal Care and Use Committee (IACUC) procedures and guidelines. v-Src- and oncogenic H-Ras-transformed NIH 3T3, A549, MDA-MB-468 and Calu-1 cells were harvested, resuspended in PBS and injected s.c. into the right and left flank (10×10^6 cells per flank) of 8 week old female nude mice as reported previously (Sun, J. et al. Cancer Res., 1999, 59:4919-4926). Similarly, murine B16-F10 Melanoma cells were injected s.c. into the right and left flank (10^6 cells per flank) of C57 black mice. When tumors reached about 150 mm^3, animals were randomized (five animals per group; two tumors per animal) and dosed i.p. with 0.2 ml once daily. […] The tumor volumes were determined by measuring the length (l) and the width (w) and calculating the volume (V=1w^2/2) as described previously (Sun, J. et al. Cancer Res., 1999, 59:4919-4926). Statistical significance between control and treated animals were evaluated by using Student's t-test. For the mouse survival experiments, C57 BL-6 black mice were implanted s.c. with B16-F10 cells (10^5 to 10^6 cells per flank). On day 5 after implantation the mice were randomized (6 animals per group) and treated with either vehicle or JSI-124 (1 mg/Kg/day) for 25 days. Percent surviving mice was determined by monitoring the death of mice until all mice died. Two experiments of 12 animals each (6 control and 6 treated with JSI-124) were carried out. For statistical analysis: for each of the two experiments, mice receiving JSI-124 were compared to those receiving vehicle control with respect to survival using the permutation log rank test as implemented in the statistical software package, ProcStatXact (p-values are two sided and exact).

T2 sequence (P00533 25-1210): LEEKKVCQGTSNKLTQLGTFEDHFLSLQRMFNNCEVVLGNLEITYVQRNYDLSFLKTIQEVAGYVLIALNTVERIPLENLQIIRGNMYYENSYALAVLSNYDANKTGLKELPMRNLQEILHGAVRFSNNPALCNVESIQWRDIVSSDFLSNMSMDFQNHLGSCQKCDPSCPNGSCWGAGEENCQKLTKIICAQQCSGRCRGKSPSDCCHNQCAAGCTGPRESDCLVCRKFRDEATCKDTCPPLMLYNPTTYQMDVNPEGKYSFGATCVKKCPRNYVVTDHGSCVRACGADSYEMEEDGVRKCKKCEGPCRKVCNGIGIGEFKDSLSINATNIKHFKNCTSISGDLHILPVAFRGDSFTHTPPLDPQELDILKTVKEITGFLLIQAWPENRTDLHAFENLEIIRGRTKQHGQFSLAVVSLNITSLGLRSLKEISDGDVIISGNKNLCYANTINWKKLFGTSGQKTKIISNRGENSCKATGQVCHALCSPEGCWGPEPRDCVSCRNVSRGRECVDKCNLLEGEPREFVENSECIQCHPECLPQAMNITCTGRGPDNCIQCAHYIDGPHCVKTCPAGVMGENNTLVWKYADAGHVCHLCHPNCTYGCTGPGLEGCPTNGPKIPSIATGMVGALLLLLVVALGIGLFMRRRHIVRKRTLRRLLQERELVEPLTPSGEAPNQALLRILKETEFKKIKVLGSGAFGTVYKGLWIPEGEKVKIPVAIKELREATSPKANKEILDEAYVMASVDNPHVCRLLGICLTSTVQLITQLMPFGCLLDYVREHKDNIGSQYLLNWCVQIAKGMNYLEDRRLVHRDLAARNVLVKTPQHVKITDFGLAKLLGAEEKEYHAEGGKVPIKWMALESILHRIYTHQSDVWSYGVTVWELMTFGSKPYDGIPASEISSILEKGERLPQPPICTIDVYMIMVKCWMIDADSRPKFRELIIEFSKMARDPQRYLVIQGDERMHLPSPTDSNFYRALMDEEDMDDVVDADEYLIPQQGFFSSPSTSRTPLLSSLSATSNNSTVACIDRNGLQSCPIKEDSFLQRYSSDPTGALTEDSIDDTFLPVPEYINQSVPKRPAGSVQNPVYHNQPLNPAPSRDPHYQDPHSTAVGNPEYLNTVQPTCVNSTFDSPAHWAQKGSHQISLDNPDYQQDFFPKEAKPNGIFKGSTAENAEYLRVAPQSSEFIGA
T1 sequence (O60674 whole entry): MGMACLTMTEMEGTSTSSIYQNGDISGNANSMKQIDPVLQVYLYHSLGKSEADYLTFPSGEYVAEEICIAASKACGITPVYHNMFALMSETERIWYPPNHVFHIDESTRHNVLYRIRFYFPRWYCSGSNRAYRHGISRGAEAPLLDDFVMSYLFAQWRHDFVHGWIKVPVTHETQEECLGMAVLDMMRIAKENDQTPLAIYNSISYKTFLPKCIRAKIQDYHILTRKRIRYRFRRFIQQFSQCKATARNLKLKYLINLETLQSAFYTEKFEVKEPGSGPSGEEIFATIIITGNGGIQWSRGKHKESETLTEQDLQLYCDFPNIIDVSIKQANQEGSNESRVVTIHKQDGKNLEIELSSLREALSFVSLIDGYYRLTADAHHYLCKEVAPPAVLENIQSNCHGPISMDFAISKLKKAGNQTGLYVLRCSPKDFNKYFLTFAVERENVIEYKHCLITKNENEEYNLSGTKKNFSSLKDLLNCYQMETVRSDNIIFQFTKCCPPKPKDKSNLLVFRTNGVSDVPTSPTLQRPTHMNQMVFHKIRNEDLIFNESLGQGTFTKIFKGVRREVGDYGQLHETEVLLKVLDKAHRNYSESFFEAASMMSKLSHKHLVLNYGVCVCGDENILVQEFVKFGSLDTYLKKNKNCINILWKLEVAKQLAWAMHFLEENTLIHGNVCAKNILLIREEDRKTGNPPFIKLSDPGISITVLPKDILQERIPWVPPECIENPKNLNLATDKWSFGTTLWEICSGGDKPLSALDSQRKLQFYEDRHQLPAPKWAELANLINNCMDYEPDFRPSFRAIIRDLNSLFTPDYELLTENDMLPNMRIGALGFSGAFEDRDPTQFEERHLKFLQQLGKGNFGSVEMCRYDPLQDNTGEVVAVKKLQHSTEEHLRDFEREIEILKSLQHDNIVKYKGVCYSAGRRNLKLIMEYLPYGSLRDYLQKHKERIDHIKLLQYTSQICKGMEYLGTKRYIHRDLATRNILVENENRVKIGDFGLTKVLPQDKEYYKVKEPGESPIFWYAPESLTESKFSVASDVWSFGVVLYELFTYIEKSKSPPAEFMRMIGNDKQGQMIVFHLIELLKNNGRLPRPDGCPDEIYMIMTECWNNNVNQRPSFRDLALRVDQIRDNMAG

**Q.** Which results are given for `CC(C)(O)/C=C/C(=O)[C@](C)(O)[C@H]1[C@H](O)C[C@@]2(C)[C@@H]3CC=C4[C@@H](C=C(O)C(=O)C4(C)C)[C@]3(C)C(=O)C[C@]12C` [JSI-124, cucurbitacin I]?
**A.** STAT3 DNA-binding activity (EMSA) [1]: greatly reduced; levels of tyrosine phosphorylated JAK2 ([2]; A549 and MDA-MB-468 cells, various concentrations, 4 hr): effective at suppressing the levels of tyrosine phosphorylated JAK2; inhibition of phospho JAK2 levels (in words) ([2]; A-549 cells, 0-10 μM): inhibits both phospho STAT3 and phospho JAK2 levels; IC50 ([2]; A-549 cells, Western blotting, read-out: IC50 for phospho-JAK2): 200 nM; JAK2 kinase activity (autophosphorylation) in vitro [3]: not affected; EGF-stimulated EGFR tyrosine phosphorylation [4]: inhibited only minimally; effects on body weight, activity or food intake of mice ([5]; 1 mg/kg/day and 0.5 mg/kg/day i.p.): no effects on body weight, activity or food intake; edema at the local site of drug injection (peritoneal cavity) ([5]; 1 mg/kg/day i.p.): caused edema
